Assay results published in the Kinase Knowledgebase extract (Sharma et al. 2016).

Each molecule was assayed against EGFR (human) (UniProt P00533). Settings: hl-60.
Chain of EGFR (human) (P00533 whole entry, looked up): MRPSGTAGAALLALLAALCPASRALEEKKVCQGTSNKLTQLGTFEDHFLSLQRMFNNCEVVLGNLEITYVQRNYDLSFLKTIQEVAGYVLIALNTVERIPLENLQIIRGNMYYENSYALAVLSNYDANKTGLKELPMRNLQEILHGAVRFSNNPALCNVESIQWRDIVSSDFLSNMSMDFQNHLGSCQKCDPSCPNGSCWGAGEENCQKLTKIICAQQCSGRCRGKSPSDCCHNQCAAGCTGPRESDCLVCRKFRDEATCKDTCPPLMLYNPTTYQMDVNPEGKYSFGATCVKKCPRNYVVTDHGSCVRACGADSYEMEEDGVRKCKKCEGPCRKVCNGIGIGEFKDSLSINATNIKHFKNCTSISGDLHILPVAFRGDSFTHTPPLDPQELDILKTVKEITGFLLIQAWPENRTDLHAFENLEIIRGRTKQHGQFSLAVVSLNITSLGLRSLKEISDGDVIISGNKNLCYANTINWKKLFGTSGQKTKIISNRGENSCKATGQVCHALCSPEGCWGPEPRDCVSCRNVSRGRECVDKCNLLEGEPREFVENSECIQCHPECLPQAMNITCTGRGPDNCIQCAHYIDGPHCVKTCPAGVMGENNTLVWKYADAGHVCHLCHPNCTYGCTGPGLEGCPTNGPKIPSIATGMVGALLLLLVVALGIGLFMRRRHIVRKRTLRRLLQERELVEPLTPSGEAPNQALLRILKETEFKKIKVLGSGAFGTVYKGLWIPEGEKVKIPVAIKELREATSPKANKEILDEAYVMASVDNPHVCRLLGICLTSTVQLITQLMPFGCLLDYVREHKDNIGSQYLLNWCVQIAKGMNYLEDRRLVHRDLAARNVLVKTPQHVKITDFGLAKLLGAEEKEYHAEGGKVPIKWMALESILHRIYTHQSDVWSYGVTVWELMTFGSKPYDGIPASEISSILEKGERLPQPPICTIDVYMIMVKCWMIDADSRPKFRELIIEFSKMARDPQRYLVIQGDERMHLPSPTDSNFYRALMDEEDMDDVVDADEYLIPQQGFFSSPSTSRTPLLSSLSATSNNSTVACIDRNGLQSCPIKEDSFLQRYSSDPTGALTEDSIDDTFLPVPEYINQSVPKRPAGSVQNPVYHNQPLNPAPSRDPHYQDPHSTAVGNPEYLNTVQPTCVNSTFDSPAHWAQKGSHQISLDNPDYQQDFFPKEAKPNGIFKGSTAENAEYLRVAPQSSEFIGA

IC50, > 100 µM:
O=C(CCCCCC(=O)Nc1ccc(O)c(C(=O)Nc2cccc(C(F)(F)F)c2)c1)NO, O=C(CCCCCC(=O)Nc1ccc(O)c(C(=O)Nc2ccc(Cl)c(C(F)(F)F)c2)c1)NO, O=C(CCCCCC(=O)Nc1ccc(O)c(C(=O)Nc2ccc(OCc3cccc(F)c3)c(Cl)c2)c1)NO, O=C(CCCCCC(=O)Nc1ccc(O)c(C(=O)Nc2ccc(F)c(F)c2)c1)NO, O=C(CCCCCC(=O)Nc1ccc(O)c(C(=O)Nc2ccc(F)c(Cl)c2)c1)NO, C#Cc1cccc(NC(=O)c2cc(NC(=O)CCCCCCC(=O)NO)ccc2O)c1, O=C(CCCCCC(=O)Nc1ccc(O)c(C(=O)Nc2cccc(F)c2)c1)NO, C#Cc1cccc(NC(=O)c2cc(NC(=O)CCCCCC(=O)NO)ccc2O)c1, C#Cc1cccc(NC(=O)c2cccc(NC(=O)CCCCCC(=O)NO)c2)c1, O=C(CCCCCC(=O)Nc1ccc(O)c(C(=O)Nc2ccc(Cl)c(Cl)c2)c1)NO
